The values below come from patent publication US20250044294A1, “COMPOSITION AND METHOD OF TREATING A CANCER THROUGH AFFECTING MEMBRANE RECEPTORS OF CANCER CELLS AND THEIR DERIVED EXTRACELLULAR VESICLES” (National Yang Ming Chiao Tung University, priority 2023, published 2025).

Each structure is given as a SMILES string. Read-outs that look alike come from different tables or passages of the source.

In one assay the test system is integrin α6/β4. Nature of the assay: Western blotting of integrin α6/β4 on PDAC-derived EVs. The format is cell-based, human. Conditions: EVs derived from BxPC-3 and PANC-1 cells; short-term treatment. In general terms: Immunoblotting shows a protein as a band on a membrane.
For assay [1], the target named is T1, EGFR-HER2 protein-protein interactions (Homo sapiens, UniProt P00533+P04626).
T1 construct: endogenous in cells; host or cells: HSC3 and SAS cells
The format is cell-based. Conditions: HSC3 and SAS; pre-treatment 15 μM 30 min, then EGF 10 ng/mL 15 min.

Assay [2] relates to AKT activation. Nature of the assay: Western blotting of AKT activation in NSCLC cells (A549). The assay is classed as cell-based, human. Conditions: 15 μM 30 min, pre-treatment and post-treatment, EGF 10 ng/mL 15 min.
Description: DMSO was used as a vehicle control. For EGF stimulation, cells were incubated with 10 ng/mL with continuous drugs treatment for 15 min at 37° C.
Cells or EVs were lysed in RIPA lysis buffer (containing 50 mM Tris-HCl, 1% NP-40, 150 mM NaCl, 0.1% SDS, 1 mM PMSF, 1 mM Na3VO4) with complete protease and protease inhibitor cocktail (1:1000) (Sigma-Aldrich). The protein quantitation is analyzed by comparing to 2 mg/ml Bovine serum albumin (BSA). Prepare the cell sample with one-tenth of dilution and the EV sample without dilution. Next, prepare all sample to 30 ul then put 10 μl each well in 96-well plates. Protein concentrations were then determined using the BCA assay kit (Thermo, USA) according to the manufacturer's instructions. Then, the same amounts of protein lysates from cells and EVs were loaded onto 8-12% SDS polyacrylamide gels and subjected to electrophoresis at 80-100 V, followed by transferring the proteins to 0.22 or 0.45 μm poly-vinylidene fluoride membranes (Millipore). The membranes were blocked with 5% skimmed milk in PBST (Tris-buffered saline containing Tween-20) for 1 h at room temperature and then washed 3 times (10 minutes for each time) with TBST (1M Tris-HCL pH7.5, NaCl, Tween 20 in ddH2O). […] The membrane was exposed using enhanced chemiluminescence reagents and analyzed using the Fujifilm LAS4000 luminescent image analysis system.
The subject of another assay is BxPC-3 cells. Nature of the assay: Laminin-induced cell proliferation (SRB). The format is cell-based, human. Conditions: 48 hours.
The test system of assay [3] is PDAC cells (BxPC-3, PANC-1, AsPC-1). Kind of assay: Transwell migration assay of PDAC cells. The assay is classed as cell-based, human. The note with it: compared to gemcitabine treatment.
For assay [4], the system named is H6C7 cells and WI-38 cells. Kind of assay: Co-culture cell migration with PDAC-derived secretomes. The assay is classed as cell-based, human. As to the method: In the transwell migration assay, cells were seeded in upper chambers of Transwell plates (Transwell® Permeable Support, 6.5 mm insert, 24 well plate, 8.0 μm pore polyester membrane with sterile, Corning, #3464) in serum-free (SF) medium and seeded 5×10^4-1×10^5 cells per well, while lower chambers were added medium with 10% FBS as an attractant. Drugs were treated in both upper and lower chambers, and incubated on the 24-well plate at 37° C. for 16-24 hours. The cells were fix with 4% paraformaldehyde (PFA, SIGMA, #F8775) for 10 minutes and staining with 1% crystal violet (MERCK, 1 g Crystal violet powder dissolved in 75 ml ddH2O and 25 ml […] then filters by 0.45 μm filter) for 0.5 hours. After drying the insert completely, take at least 3 cell pictures randomly in every sample by microscope and count the number of cells by Image J.
To initiate this exploration, a transwell migration assay in vitro was performed to assess the migration ability of PDAC cells. […] To achieve this, a co-culture cell migration system was established to examine the behavioral changes in normal cells treated with PDAC-derived secretomes.
For the cell line selection, the H6C7 cell line, derived from normal human pancreatic duct epithelial (HPDE) cells and immortalized, was employed to investigate the interactions between PDAC cells and human pancreatic duct cells. This cell line serves as a valuable tool for studying the molecular and cellular interactions that occur between PDAC cells and their surrounding pancreatic ductal epithelial cells. Additionally, to simulate the lung tissue environment and validate PDAC cells with high metastatic potential to the lung, human lung fibroblasts known as WI-38 cells were chosen as a relative normal cell model. By utilizing this model, the interactions between PDAC cells and the lung microenvironment can be examined and assessed.

Another assay has as its system BxPC-3 cell-derived EVs. Nature of the assay: NanoFCM analysis of EV subpopulations from BxPC-3 cells. The assay is classed as cell-based, human. The method, then: EV samples containing 3×10^9 particles were incubated with diluted antibodies (1:1000), including FITC-anti-CD9 antibodies, PE-anti-CD63 antibodies, and APC-anti-integrin β4 antibodies, for 30 minutes in a 37° C. water bath. Following the incubation period, an Amicon® Ultra Centrifugal Filter with a 100 kDa molecular weight cutoff (MWCO) was used and rinsed with 1× PBS buffer. The samples were centrifuged at 4000×g for 5 minutes, with the centrifugation process repeated three times. After centrifugation, the samples were retrieved and diluted 10-100 times for detecting the expression levels of EV surface proteins by NanoFCM. The results were analyzed using Kaluza Analysis Software.

The target of assay [5] is T2, EGFR-p-EGFR protein-protein interactions (Homo sapiens, UniProt P00533). The format is cell-based. The note with it: HSC3 and SAS; pre-treatment 15 μM 30 min, then EGF 10 ng/mL 15 min. Also noted: endogenous in cells; host or cells: HSC3 and SAS cells.
T2 sequence (P00533 25-1210): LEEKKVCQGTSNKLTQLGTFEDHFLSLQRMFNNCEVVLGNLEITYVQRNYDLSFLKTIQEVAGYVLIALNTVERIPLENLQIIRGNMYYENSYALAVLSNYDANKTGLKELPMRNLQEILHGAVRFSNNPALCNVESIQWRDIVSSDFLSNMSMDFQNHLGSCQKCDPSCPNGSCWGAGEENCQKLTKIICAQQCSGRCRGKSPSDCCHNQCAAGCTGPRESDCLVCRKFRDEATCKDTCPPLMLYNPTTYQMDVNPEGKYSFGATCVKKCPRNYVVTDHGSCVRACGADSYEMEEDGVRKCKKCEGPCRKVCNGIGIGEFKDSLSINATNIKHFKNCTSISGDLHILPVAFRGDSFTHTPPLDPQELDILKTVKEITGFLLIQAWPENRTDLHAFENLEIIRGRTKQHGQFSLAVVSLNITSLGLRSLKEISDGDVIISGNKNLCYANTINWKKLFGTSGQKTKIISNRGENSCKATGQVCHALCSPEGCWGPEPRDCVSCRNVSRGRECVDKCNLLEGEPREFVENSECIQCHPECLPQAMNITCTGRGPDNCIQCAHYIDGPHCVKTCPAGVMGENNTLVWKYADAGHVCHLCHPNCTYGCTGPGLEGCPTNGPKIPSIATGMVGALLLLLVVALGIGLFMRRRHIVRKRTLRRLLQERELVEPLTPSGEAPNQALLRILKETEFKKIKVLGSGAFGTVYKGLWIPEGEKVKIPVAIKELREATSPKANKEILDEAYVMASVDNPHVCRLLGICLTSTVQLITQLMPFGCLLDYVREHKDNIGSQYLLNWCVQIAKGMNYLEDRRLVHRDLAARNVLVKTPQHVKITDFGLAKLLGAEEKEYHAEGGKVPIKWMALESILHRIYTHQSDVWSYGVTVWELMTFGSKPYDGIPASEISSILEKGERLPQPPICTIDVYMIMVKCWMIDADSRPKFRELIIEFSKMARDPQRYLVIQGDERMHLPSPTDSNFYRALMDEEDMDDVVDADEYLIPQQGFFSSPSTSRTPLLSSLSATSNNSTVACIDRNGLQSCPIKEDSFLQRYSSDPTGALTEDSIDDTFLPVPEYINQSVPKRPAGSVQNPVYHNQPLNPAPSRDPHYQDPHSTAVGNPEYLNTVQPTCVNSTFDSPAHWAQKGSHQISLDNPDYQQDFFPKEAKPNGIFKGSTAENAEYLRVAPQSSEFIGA
The test system of assay [6] is integrin α6/β4 on BxPC-3-derived EVs. Kind of assay: Laminin coating wound healing assay with BxPC-3-derived EVs. The note with it: laminin coating 1 μg/cm^2; EVs from PCP-treated BxPC-3 cells. The assay is classed as cell-based, human. As to the method: The culture inserts (ibidi, #80209) was put on 6 well dishes (2 inserts for each well), irradiated UV for 20 minutes and cells were seeded into the well of the insert and incubating 24 hours. The insert was removed gently and washed twice with PBS to remove the old medium and cell and be observed the gap which was formed by the insert through the microscope and captured the picture of the gap at 0 hours. After I captured of the gap, different treatments were added and incubated for 16 hours. The result was observed by the microscope and quantified by Image J.
In this assay, H6C7 cells were seeded in the wound healing inserts with or without 1 μg/cm^2 laminin coating in the six-well plate. Once the cells were attached, the wound healing inserts were removed, and H6C7 cells were exposed to BxPC-3-derived EVs and PCP-treated BxPC-3 cell-derived EVs.

Assay [7] relates to AKT activation. Nature of the assay: Western blotting of AKT activation in PDAC cells. The format is cell-based, human. The note with it: 20 μM, 6 hours. As to the method:
Cells or EVs were lysed in RIPA lysis buffer (containing 50 mM Tris-HCl, 1% NP-40, 150 mM NaCl, 0.1% SDS, 1 mM PMSF, 1 mM Na3VO4) with complete protease and […] (1:1000) (Sigma-Aldrich). The protein quantitation is analyzed by comparing to 2 mg/ml Bovine serum albumin (BSA). Prepare the cell sample with one-tenth of dilution and the EV sample without dilution. Next, prepare all sample to 30 ul then put 10 μl each well in 96-well plates. Protein concentrations were then determined using the BCA assay kit (Thermo, USA) according to the manufacturer's instructions. Then, the same amounts of protein lysates from cells and EVs were loaded onto 8-12% SDS polyacrylamide gels and subjected to electrophoresis at 80-100 V, followed by transferring the proteins to 0.22 or 0.45 μm poly-vinylidene fluoride membranes (Millipore). The membranes were blocked with 5% skimmed milk in […] (Tris-buffered saline containing Tween-20) for 1 h at room temperature and then washed 3 times (10 minutes for each time) with TBST (1M Tris-HCL pH7.5, NaCl, Tween 20 in ddH2O). After the step of washing, probed with antibodies specific for EV-enriched markers at […] overnight. […] The membrane was exposed using enhanced chemiluminescence reagents and analyzed using the Fujifilm LAS4000 luminescent image analysis system. […]

For assay [8], the target named is T2, EGFR-p-EGFR protein-protein interactions. Nature of the assay: Proximity ligation assay in PDAC cells (BxPC-3). The assay is classed as cell-based. Details: endogenous in cells. The note with it: pre-treatment 15 μM 30 min, then EGF 10 ng/mL 15 min.
The next assay relates to BEAS-2B and CL141 cells. Kind of assay: Transwell cell migration with NSCLC-derived secretomes and EVs. The assay is classed as cell-based, human.
The target of assay [9] is T3, EGFR-MET protein-protein interactions (Homo sapiens, UniProt P00533+P08581).
T3 construct: endogenous in cells; host or cells: HSC3 cells
T3 sequence (P00533 25-1210): as above
T3 sequence (P08581 308-1390 limits assumed): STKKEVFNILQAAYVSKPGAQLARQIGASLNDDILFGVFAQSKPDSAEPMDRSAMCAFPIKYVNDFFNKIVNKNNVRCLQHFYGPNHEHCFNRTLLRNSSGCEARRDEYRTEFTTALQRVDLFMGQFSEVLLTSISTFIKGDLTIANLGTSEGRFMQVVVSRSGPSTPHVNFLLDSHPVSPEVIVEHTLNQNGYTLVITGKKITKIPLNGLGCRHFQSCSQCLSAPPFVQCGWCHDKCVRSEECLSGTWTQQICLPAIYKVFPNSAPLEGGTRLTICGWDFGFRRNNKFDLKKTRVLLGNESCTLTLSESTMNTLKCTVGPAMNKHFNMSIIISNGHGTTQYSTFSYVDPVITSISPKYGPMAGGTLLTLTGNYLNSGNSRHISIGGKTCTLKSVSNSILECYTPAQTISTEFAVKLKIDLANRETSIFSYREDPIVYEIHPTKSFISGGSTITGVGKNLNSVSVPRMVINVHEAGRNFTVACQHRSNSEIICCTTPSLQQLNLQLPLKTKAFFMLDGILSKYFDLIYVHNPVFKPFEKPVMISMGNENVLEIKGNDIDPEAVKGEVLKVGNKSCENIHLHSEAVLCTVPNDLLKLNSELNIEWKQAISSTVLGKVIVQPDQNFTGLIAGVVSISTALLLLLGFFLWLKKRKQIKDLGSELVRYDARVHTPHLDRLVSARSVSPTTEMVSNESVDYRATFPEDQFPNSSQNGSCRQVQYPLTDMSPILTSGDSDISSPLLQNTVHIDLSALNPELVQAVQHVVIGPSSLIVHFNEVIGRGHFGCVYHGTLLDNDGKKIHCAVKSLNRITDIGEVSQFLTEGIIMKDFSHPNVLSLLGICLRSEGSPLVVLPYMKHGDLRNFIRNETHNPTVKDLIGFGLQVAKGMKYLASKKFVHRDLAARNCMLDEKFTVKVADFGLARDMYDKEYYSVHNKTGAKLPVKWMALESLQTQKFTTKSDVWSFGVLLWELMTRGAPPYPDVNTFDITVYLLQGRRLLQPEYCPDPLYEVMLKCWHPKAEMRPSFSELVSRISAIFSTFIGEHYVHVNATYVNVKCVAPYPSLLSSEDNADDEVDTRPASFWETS
The assay is classed as cell-based. The note with it: HSC3; pre-treatment 15 μM 30 min, then EGF 10 ng/mL 15 min.

The test system of assay [10] is 3R-4 and 3R-5-1 tumoroids. Nature of the assay: Protein expression in pancreatic cancer patient-derived tumoroids (western blotting, immunofluorescence). The format is cell-based, human. The note with it: 72-hour treatment.
[11] abbreviates: 3R-4 tumoroids, western blotting.

In the case of `CN1CCN(CCCN2c3ccccc3Sc3ccc(Cl)cc32)CC1` [PCP, Prochlorperazine], the “integrin α6/β4 protein expression on EVs” value with integrin α6/β4 was “inhibited integrin α6/β4 protein expression”. Moreover, the EGFR-HER2 protein-protein interactions result in [1] was “could suppress EGFR-HER2 protein-protein interactions”. Besides, the AKT activation entry was “effectively suppressed AKT activation” in the assay with AKT activation [2] and “suppressed AKT activation” in the assay on AKT activation [7]. Also, the “laminin-induced cell proliferation rate” value in the assay on BxPC-3 cells (1 μg/cm^2 laminin) is “reversed the increased cell proliferation rate”. Moreover, the “drug sensitivity to PCP after laminin binding” value with BxPC-3 cells (compared to the vehicle group) is “significantly higher increase in drug sensitivity”. Further, in assay [3], the “migration ability of PDAC cells” value is given as “significantly suppressed”. Besides, the entries for the “migratory capability of WI-38 cells” value in assay [4] (AsPC-1-derived secretomes), in assay [4] (BxPC-3-derived secretomes) and in assay [4] (PANC-1-derived secretomes) were “comparatively weaker effect”, “strongest inhibition” and “least effect”, respectively. Also, in assay [4] (co-culture with BxPC-3-derived secretomes), the “migratory behavior of H6C7 cells” value is given as “significantly suppressed”. In the assay on BxPC-3 cell-derived EVs, the “co-expression levels of CD9 and integrin β4 proteins on ITGB4+CD9+ EVs” value was “downregulated”. Also, the “secretion of CD9-EVs” value with BxPC-3 cell-derived EVs is recorded as “significantly downregulated”. For the same compound, the “secretion of CD63-EVs” value in the assay with BxPC-3 cell-derived EVs is “upregulating”. The “secretion of ITGB4+CD9+ EVs” value in the assay with BxPC-3 cell-derived EVs was “significantly suppressed”. Moreover, the EGFR-p-EGFR protein-protein interactions result in assay [5] is on record as “could suppress EGFR-p-EGFR protein-protein interactions”; in [8] it was “could suppress”. For the same compound, the “functional activity of integrin α6/β4 on EVs (migration of H6C7 cells)” value in assay [6] is given as “significantly inhibited”. Besides, the “migratory capability induced by NSCLC-derived secretomes” value with BEAS-2B and CL141 cells (BEAS-2B and CL141, secretomes from H441 cells) was “inhibitory effect”. Besides, the “migratory capability induced by NSCLC-derived EVs” value in the assay with BEAS-2B and CL141 cells (treated cells with NSCLC-derived EVs) is “could downregulate this increased migratory capability”. For the same compound, the EGFR-MET protein-protein interactions entry in assay [9] is “could suppress EGFR-MET protein-protein interactions”. In assay [10] (3R-4 and 3R-5-1 tumoroids, immunofluorescence), the “expression levels of CD9 and integrin β4” value is “also inhibited the expression levels of CD9 and integrin β4”. Moreover, the “expression levels of GPC1” value in assay [10] (setting [11]) is “unchanged expression levels of GPC1”. Further, in [10] (setting [11]), the “expression levels of integrin α6/β4, CD9, EGFR, HER2, HER3” value is recorded as “inhibited the expression levels”.
